Experimental data from US8877707B2, “Inhibitors of HCV NS5A” (Presidio Pharmaceuticals, Inc., priority 2010, dated 2014).

Tested on: HCV genotype 1b replicon in Huh 7 cells
Assay: HCV replicon assay (1b_Huh-Luc/Neo-ET cell line, luciferase readout)
Assay type: cell-based
Conditions: Hepatitis C virus; Table 1; genotype 1b replicon, Huh 7 cells, 72 h, luciferase; read-out: Inhibition of HCV genotype 1b
How it was run: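 Huh 7 cells carrying a bicistronic genotype 1b luciferase replicon were treated with compound in triplicate the day after plating and incubated 72 h. Luciferase activity expressed as % of untreated control; EC50 from a four-parameter logistic fit, repeated several times.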

Compound | EC50 [nM]
COC(=O)N[C@H](C(=O)N1CCC[C@H]1c1ncc(-c2ccc3cc(-c4ccc(-c5cnc([C@@H]6COCCN6C(=O)[C@H](NC(=O)OC)c6ccccc6)[nH]5)cc4)ccc3c2)[nH]1)C(C)C [compound 131] | < 1
COC(=O)N[C@H](C(=O)N1CCC[C@H]1c1ncc(-c2ccc(-c3ccc4cc(-c5cnc([C@@H]6COCCN6C(=O)[C@H](NC(=O)OC)c6ccccc6)[nH]5)ccc4c3)cc2)[nH]1)C(C)C [compound 132] | < 1
COC(=O)N[C@H](C(=O)N1CCC[C@H]1c1ncc(-c2ccc(-c3ccc4cc(-c5cnc([C@@H]6CCCN6C(=O)[C@@H](NC(=O)OC)C6CCOCC6)[nH]5)ccc4c3)cc2)[nH]1)C1CCOCC1 [compound 133] | < 1
COC(=O)N[C@H](C(=O)N1CCC[C@H]1c1ncc(-c2ccc3nc(-c4ccc(-c5cnc([C@@H]6CCCN6C(=O)[C@H](NC(=O)OC)c6ccccc6)[nH]5)cc4F)ccc3c2)[nH]1)C1CCOCC1 [compound 134] | < 1
COC(=O)N[C@H](C(=O)N1CCC[C@H]1c1ncc(-c2ccc3nc(-c4ccc(-c5cnc([C@@H]6CCCN6C(=O)[C@H](NC(=O)OC(C)(C)C)c6ccccc6)[nH]5)cc4F)ccc3c2)[nH]1)C1CCOCC1 [compound 135] | < 1
COC(=O)N[C@H](C(=O)N1CCC[C@H]1c1ncc(-c2ccc(-c3ccc4cc(-c5cnc([C@@H]6CCCN6C(=O)[C@H](NC(=O)OC(C)(C)C)c6ccccc6)[nH]5)ccc4n3)c(F)c2)[nH]1)C1CCOCC1 [compound 136] | < 1
COC(=O)N[C@H](C(=O)N1CCOC[C@H]1c1ncc(-c2ccc(-c3ccc4cc(-c5cnc([C@@H]6CCCN6C(=O)[C@H](NC(=O)OC)c6ccccc6)[nH]5)ccc4c3)cc2)[nH]1)C(C)C [compound 137] | < 1
COC(=O)N[C@H](C(=O)N1CCOC[C@H]1c1ncc(-c2ccc3cc(-c4ccc(-c5cnc([C@@H]6CCCN6C(=O)[C@H](NC(=O)OC)c6ccccc6)[nH]5)cc4)ccc3c2)[nH]1)C(C)C [compound 138] | < 1
COC(=O)N[C@H](C(=O)N1CCC[C@H]1c1ncc(-c2ccc3cc(-c4ccc(-c5cnc([C@@H]6COCCN6C(=O)[C@@H](NC(=O)OC)C(C)C)[nH]5)cc4)ccc3c2)[nH]1)C(C)C [compound 139] | < 1
COC(=O)N[C@H](C(=O)N1CCC[C@H]1c1ncc(-c2ccc(-c3ccc4cc(-c5cnc([C@@H]6COCCN6C(=O)[C@@H](NC(=O)OC)C(C)C)[nH]5)ccc4c3)cc2)[nH]1)C(C)C [compound 140] | < 1
COC(=O)N[C@H](C(=O)N1CCC[C@H]1c1ncc(-c2ccc(-c3ccc4cc(-c5cnc([C@@H]6CCCN6C(=O)[C@@H](NC(=O)OC)C6CCOCC6)[nH]5)ccc4c3)c(F)c2)[nH]1)C1CCOCC1 [compound 141] | < 1
CC[C@@H](C)[C@H](NC(=O)OC)C(=O)N1CCC[C@H]1c1ncc(-c2ccc(-c3ccc4cc(-c5cnc([C@@H]6CCCN6C(=O)[C@@H](NC(=O)OC)[C@H](C)CC)[nH]5)ccc4c3)cc2)[nH]1 [compound 142] | < 1
COC(=O)N[C@H](C(=O)N1CCC[C@H]1c1ncc(-c2ccc(-c3ccc4cc(-c5cnc([C@@H]6CCCN6C(=O)[C@@H](NC(=O)OC)C6CC6)[nH]5)ccc4c3)cc2)[nH]1)C1CC1 [compound 143] | < 1
CNC(=O)N[C@@H](C(=O)N1CCC[C@H]1c1ncc(-c2ccc(-c3cc4ccc(-c5cnc([C@@H]6CCCN6C(=O)[C@@H](NC(=O)OC)C6CCOCC6)[nH]5)cc4cn3)cc2)[nH]1)c1ccccc1 [compound 144] | < 1
COC(=O)N[C@H](C(=O)N1CCC[C@H]1c1ncc(-c2ccc3cc(-c4ccc(-c5cnc([C@@H]6CCCN6C(=O)[C@H](NC(=O)NC6CC6)c6ccccc6)[nH]5)cc4)ncc3c2)[nH]1)C1CCOCC1 [compound 145] | < 1
COC(=O)N[C@H](C(=O)N1CCC[C@H]1c1ncc(-c2ccc3nc(-c4ccc(-c5cnc([C@@H]6C[C@@H](O)CN6C(=O)[C@@H](NC(=O)OC)C(C)C)[nH]5)cc4)ccc3c2)[nH]1)C(C)C [compound 146] | < 1
COC(=O)N[C@H](C(=O)N1C[C@H](O)C[C@H]1c1ncc(-c2ccc(-c3ccc4cc(-c5cnc([C@@H]6CCCN6C(=O)[C@@H](NC(=O)OC)C6CCOCC6)[nH]5)ccc4n3)cc2)[nH]1)C(C)C [compound 147] | < 1
COC(=O)N[C@H](C(=O)N1C[C@H](O)C[C@H]1c1ncc(-c2ccc(-c3ccc4cc(-c5cnc([C@@H]6CCCN6C(=O)[C@H](NC(=O)OC)c6ccccc6)[nH]5)ccc4n3)cc2)[nH]1)C(C)C [compound 148] | < 1
COC(=O)N[C@H](C(=O)N1C[C@H](O)C[C@H]1c1ncc(-c2ccc(-c3ccc4cc(-c5cnc([C@@H]6CCCN6C(=O)[C@H](NC(=O)OC6CCOCC6)c6ccccc6)[nH]5)ccc4n3)cc2)[nH]1)C(C)C [compound 149] | < 1
COC(=O)N[C@H](C(=O)N1CCC[C@H]1c1ncc(-c2ccc(-c3cc4ccc(-c5cnc([C@@H]6CCCN6C(=O)[C@@H](NC(=O)OC)C(C)C)[nH]5)cc4cn3)c(F)c2)[nH]1)C(C)C [compound 150] | < 1

Compound | EC50 [nM]
COC(=O)N[C@H](C(=O)N1CCC[C@H]1c1ncc(-c2ccc3cc(-c4ccc(-c5cnc([C@@H]6CCCN6C(=O)[C@@H](NC(=O)OC)C6CCOCC6)[nH]5)cc4F)ncc3c2)[nH]1)C(C)C [compound 151] | < 1
COC(=O)N[C@H](C(=O)N1CCC[C@H]1c1ncc(-c2ccc3cc(-c4ccc(-c5cnc([C@@H]6CCCN6C(=O)[C@H](NC(=O)OC)c6ccccc6)[nH]5)cc4F)ncc3c2)[nH]1)C(C)C [compound 152] | < 1
COC(=O)N[C@H](C(=O)N1CCC[C@H]1c1ncc(-c2ccc3cc(-c4ccc(-c5cnc([C@@H]6CCCN6C(=O)[C@H](NC(=O)OC6CCOCC6)c6ccccc6)[nH]5)cc4F)ncc3c2)[nH]1)C(C)C [compound 153] | < 1
COC(=O)N[C@H](C(=O)N1CCC[C@H]1c1ncc(-c2ccc3cc(-c4ccc(-c5cnc([C@@H]6CCCN6C(=O)[C@H](NC(=O)OC6CCOCC6)c6ccccc6)[nH]5)c(F)c4)ncc3c2)[nH]1)C1CCOCC1 [compound 154] | < 1
COC(=O)N[C@H](C(=O)N1CCC[C@H]1c1ncc(-c2ccc3cc(-c4ccc(-c5cnc([C@@H]6CCCN6C(=O)[C@H](NC(=O)OC)c6ccccc6)[nH]5)c(F)c4)ncc3c2)[nH]1)C(C)C [compound 155] | < 1
COC(=O)N[C@H](C(=O)N1CCC[C@H]1c1ncc(-c2ccc(-c3cc4ccc(-c5cnc([C@@H]6CCCN6C(=O)[C@H](NC(=O)OC6CCOCC6)c6ccccc6)[nH]5)cc4cn3)cc2F)[nH]1)C(C)C [compound 156] | < 1
[2H]C([2H])([2H])C([2H])(C([2H])([2H])[2H])[C@@]([2H])(NC(=O)OC)C(=O)N1CCC[C@H]1c1ncc(-c2ccc3nc(-c4ccc(-c5cnc([C@@H]6CCCN6C(=O)[C@@H](NC(=O)OC)C(C)C)[nH]5)cc4F)ccc3c2)[nH]1 [compound 157] | < 1
[2H]C([2H])([2H])C([2H])(C([2H])([2H])[2H])[C@@]([2H])(NC(=O)OC)C(=O)N1CCC[C@H]1c1ncc(-c2ccc3nc(-c4ccc(-c5cnc([C@@H]6CCCN6C(=O)[C@@H](NC(=O)OC)C6CCOCC6)[nH]5)cc4F)ccc3c2)[nH]1 [compound 158] | < 1
C=CC[C@H](NC(=O)OC)C(=O)N1CCC[C@H]1c1ncc(-c2ccc3nc(-c4ccc(-c5cnc([C@@H]6CCCN6C(=O)[C@@H](NC(=O)OC)C(C)C)[nH]5)cc4F)ccc3c2)[nH]1 [compound 159] | < 1
C=CC[C@H](NC(=O)OC)C(=O)N1CCC[C@H]1c1ncc(-c2ccc3nc(-c4ccc(-c5cnc([C@@H]6CCCN6C(=O)[C@@H](NC(=O)OC)C6CCOCC6)[nH]5)cc4F)ccc3c2)[nH]1 [compound 160] | < 1
C#CC[C@H](NC(=O)OC)C(=O)N1CCC[C@H]1c1ncc(-c2ccc3nc(-c4ccc(-c5cnc([C@@H]6CCCN6C(=O)[C@@H](NC(=O)OC)C(C)C)[nH]5)cc4F)ccc3c2)[nH]1 [compound 161] | < 1
C#CC[C@H](NC(=O)OC)C(=O)N1CCC[C@H]1c1ncc(-c2ccc3nc(-c4ccc(-c5cnc([C@@H]6CCCN6C(=O)[C@@H](NC(=O)OC)C6CCOCC6)[nH]5)cc4F)ccc3c2)[nH]1 [compound 162] | < 1
COC(=O)N[C@H](C(=O)N1CCC[C@H]1c1ncc(-c2ccc(-c3ccc4cc(-c5cnc([C@@H]6CCCN6C(=O)[C@H](NC(=O)OC)C6C=CCC=C6)[nH]5)ccc4n3)c(F)c2)[nH]1)C1CCOCC1 [compound 163] | < 1
COC(=O)NC(C(=O)N1CCC[C@H]1c1ncc(-c2ccc3nc(-c4ccc(-c5cnc([C@@H]6CCCN6C(=O)[C@@H](NC(=O)OC)C6CCOCC6)[nH]5)cc4F)ccc3c2)[nH]1)C1CCOC1 (stereo partly shown) [compound 164] | < 1
COC(=O)N[C@H](C(=O)N1CCC[C@H]1c1ncc(-c2ccc3cc(-c4ccc(-c5cnc([C@@H]6CCCN6C(=O)[C@H](NC(=O)OC)c6ccccc6)[nH]5)cc4F)ncc3c2)[nH]1)C1CCOCC1 [compound 165] | < 1
COC(=O)N[C@H](C(=O)N1CCC[C@H]1c1ncc(-c2ccc(-c3cc4ccc(-c5cnc([C@@H]6CCCN6C(=O)[C@@H](NC(=O)OC)C6CCOCC6)[nH]5)cc4cn3)c(F)c2)[nH]1)C(C)C [compound 166] | < 1
COC(=O)N[C@H](C(=O)N1CCC[C@H]1c1ncc(-c2ccc(-c3cc4ccc(-c5cnc([C@@H]6CCCN6C(=O)[C@H](NC(=O)OC)c6ccccc6)[nH]5)cc4cn3)c(F)c2)[nH]1)C(C)C [compound 167] | < 1
COC(=O)N[C@H](C(=O)N1CCOC[C@H]1c1ncc(-c2ccc3cc(-c4ccc(-c5cnc([C@@H]6COCCN6C(=O)[C@H](NC(=O)OC)c6ccccc6)[nH]5)cc4)ccc3c2)[nH]1)C(C)C [compound 168] | < 1
COC(=O)N[C@H](C(=O)N1CCC[C@H]1c1ncc(-c2ccc3cc(-c4ccc(-c5cnc([C@@H]6COCCN6C(=O)[C@H](NC(=O)OC)c6ccccc6)[nH]5)cc4)ccc3c2)[nH]1)C1CCOCC1 [compound 169] | < 1
COC(=O)N[C@H](C(=O)N1CCOC[C@H]1c1ncc(-c2ccc(-c3ccc4cc(-c5cnc([C@@H]6COCCN6C(=O)[C@@H](NC(=O)OC)C(C)C)[nH]5)ccc4c3)cc2)[nH]1)C(C)C [compound 170] | < 1
